Assay results reported in patent US12077503B2, “Substituted cyclic amides and their use as herbicides” (FMC CORPORATION, priority 2015, dated 2024).

How the values were obtained:
Type in all cases: in vivo
[1] = system: barnyardgrass (Echinochloa crus-galli); test: Test C postemergence; details: scale 0 to 100, 0 no effect, 100 complete control
Excerpt: (§1) Seeds of plant species selected from blackgrass (Alopecurus myosuroides), ryegrass, Italian (Italian ryegrass, Lolium multiflorum), wheat (winter wheat, Triticum aestivum), Galium (catchweed bedstraw, Galium aparine), corn (Zea mays), crabgrass, large (large crabgrass, Digitaria sanguinalis), foxtail, giant (giant foxtail, Setaria faberii), johnsongrass (Sorghum halepense), lambsquarters (Chenopodium album), morningglory (Ipomoea coccinea), nutsedge, yellow (yellow nutsedge, Cyperus esculentus), pigweed (Amaranthus retroflexus), ragweed (common ragweed, Ambrosia elatior), soybean (Glycine max), barnyardgrass (Echinochloa crus-galli), oilseed rape (Brassica napus), waterhemp (common waterhemp, Amaranthus rudis) and velvetleaf (Abutilon theophrasti) were planted into a blend of loam soil and sand and treated preemergence with test chemicals formulated in a non-phytotoxic solvent mixture which included a surfactant.
(§2) At the same time, plants selected from these crop and weed species and also Kochia (Kochia scoparia), oat, wild (wild oat, Avena fatua), and chickweed (common chickweed, Stellaria media) were planted in pots containing Sunshine Redi-Earth® planting medium comprising spaghnum peat moss, vermiculite, starter nutrients and dolomitic limestone and treated with postemergence applications of test chemicals formulated in the same manner. Plants ranged in height from 2 to 18 cm (1- to 4-leaf stage) for postemergence treatments. Treated plants and controls were maintained in a greenhouse for 13 to 15 d, after which time all species were compared to controls and visually evaluated. Plant response ratings, summarized in Table C, are based on a scale of 0 to 100 where 0 is no effect and 100 is complete control. A dash (-) response means no test result.

soybean (Glycine max) = test: Test C postemergence; details: scale 0 to 100, 0 no effect, 100 complete control
Excerpt: as §1, §2

[2] = system: ragweed (common ragweed, Ambrosia elatior); test: Test C postemergence; details: scale 0 to 100, 0 no effect, 100 complete control
Excerpt: as §1, §2

[3] = system: johnsongrass (Sorghum halepense); test: Test C postemergence; details: scale 0 to 100, 0 no effect, 100 complete control
Excerpt: as §1, §2

[4] = system: velvetleaf (Abutilon theophrasti); test: Test C postemergence; details: scale 0 to 100, 0 no effect, 100 complete control
Excerpt: as §1, §2

[5] = system: lambsquarters (Chenopodium album); test: Test C postemergence; details: scale 0 to 100, 0 no effect, 100 complete control
Excerpt: as §1, §2

[6] = system: oat, wild (wild oat, Avena fatua); test: Test C postemergence; details: scale 0 to 100, 0 no effect, 100 complete control
Excerpt: as §1, §2

[7] = system: pigweed (Amaranthus retroflexus); test: Test C postemergence; details: scale 0 to 100, 0 no effect, 100 complete control
Excerpt: as §1, §2

[8] = system: blackgrass (Alopecurus myosuroides); test: Test C postemergence; details: scale 0 to 100, 0 no effect, 100 complete control
Excerpt: as §1, §2

[9] = system: chickweed (common chickweed, Stellaria media); test: Test C postemergence; details: scale 0 to 100, 0 no effect, 100 complete control
Excerpt: as §1, §2

[10] = system: waterhemp (common waterhemp, Amaranthus rudis); test: Test C postemergence; details: scale 0 to 100, 0 no effect, 100 complete control
Excerpt: as §1, §2

[11] = system: morningglory (Ipomoea coccinea); test: Test C postemergence; details: scale 0 to 100, 0 no effect, 100 complete control
Excerpt: as §1, §2

[12] = system: nutsedge, yellow (yellow nutsedge, Cyperus esculentus); test: Test C postemergence; details: scale 0 to 100, 0 no effect, 100 complete control
Excerpt: as §1, §2

[13] = system: crabgrass, large (large crabgrass, Digitaria sanguinalis); test: Test C postemergence; details: scale 0 to 100, 0 no effect, 100 complete control
Excerpt: as §1, §2

[14] = system: barnyardgrass (Echinochloa crus-galli); test: Test G Pre-Emergence Protocol; details: evaluated after 13 days
Method in brief: (§3)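 Herbicidal effect was rated 13 days post-application on a scale where 100 equals total damage. Spraying took place the day after sowing, using 15.625, 62.5 or 250 g/ha of compound in a 50:50 acetone/water solution with 0.5% Tween 20.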

[15] = system: velvetleaf (Abutilon theophrasti); test: Test G Pre-Emergence Protocol; details: evaluated after 13 days
Method in brief: as §3

[16] = system: ivy-leaved morning glory (Ipomoea hederacea); test: Test G Pre-Emergence Protocol; details: evaluated after 13 days
Method in brief: as §3

corn (Zea mays) = test: Test G Pre-Emergence Protocol; details: evaluated after 13 days
Method in brief: as §3

[17] = system: redroot pigweed (Amaranthus retroflexus); test: Test G Pre-Emergence Protocol; details: evaluated after 13 days
Method in brief: as §3

[18] = 62.5 g ai/ha, 100=total damage to plant, 0=no damage to plant

## O=C1NCC(c2ccc3c(c2)OC(F)(F)O3)C1C(=O)Nc1cccc(F)c1F (stereo not shown) [Compound 635]
[1]; 31 g ai/ha
  Plant response rating, Barnyardgrass: 0
[1]; 62 g ai/ha
  Plant response rating, Barnyardgrass: 10
[1]; 125 g ai/ha
  Plant response rating, Barnyardgrass: 65
[1]; 250 g ai/ha
  Plant response rating, Barnyardgrass: 65
Soybean (Glycine max); 31 g ai/ha
  Plant response rating, Soybean: 0
Soybean (Glycine max); 62 g ai/ha
  Plant response rating, Soybean: 0
Soybean (Glycine max); 125 g ai/ha
  Plant response rating, Soybean: 5
Soybean (Glycine max); 250 g ai/ha
  Plant response rating, Soybean: 10
[2]; 31 g ai/ha
  Plant response rating, Ragweed: 25
[2]; 62 g ai/ha
  Plant response rating, Ragweed: 60
[2]; 125 g ai/ha
  Plant response rating, Ragweed: 70
[2]; 250 g ai/ha
  Plant response rating, Ragweed: 80
[3]; 31 g ai/ha
  Plant response rating, Johnsongrass: 0
[3]; 62 g ai/ha
  Plant response rating, Johnsongrass: 0
[3]; 125 g ai/ha
  Plant response rating, Johnsongrass: 5
[3]; 250 g ai/ha
  Plant response rating, Johnsongrass: 5
[4]; 31 g ai/ha
  Plant response rating, Velvetleaf: 0
[4]; 62 g ai/ha
  Plant response rating, Velvetleaf: 0
[4]; 125 g ai/ha
  Plant response rating, Velvetleaf: 10
[4]; 250 g ai/ha
  Plant response rating, Velvetleaf: 30
[5]; 31 g ai/ha
  Plant response rating, Lambsquarters: 75
[5]; 62 g ai/ha
  Plant response rating, Lambsquarters: 80
[5]; 125 g ai/ha
  Plant response rating, Lambsquarters: 75
[5]; 250 g ai/ha
  Plant response rating, Lambsquarters: 85
[6]; 31 g ai/ha
  Plant response rating, Oat, Wild: 0
[6]; 62 g ai/ha
  Plant response rating, Oat, Wild: 0
[6]; 125 g ai/ha
  Plant response rating, Oat, Wild: 0
[6]; 250 g ai/ha
  Plant response rating, Oat, Wild: 5
[7]; 31 g ai/ha
  Plant response rating, Pigweed: 65
[7]; 62 g ai/ha
  Plant response rating, Pigweed: 60
[7]; 125 g ai/ha
  Plant response rating, Pigweed: 75
[7]; 250 g ai/ha
  Plant response rating, Pigweed: 75
[8]; 31 g ai/ha
  Plant response rating, Blackgrass: 0
[8]; 62 g ai/ha
  Plant response rating, Blackgrass: 0
[8]; 125 g ai/ha
  Plant response rating, Blackgrass: 5
[8]; 250 g ai/ha
  Plant response rating, Blackgrass: 40
[9]; 31 g ai/ha
  Plant response rating, Chickweed: 80
[9]; 62 g ai/ha
  Plant response rating, Chickweed: 85
[9]; 125 g ai/ha
  Plant response rating, Chickweed: 85
[9]; 250 g ai/ha
  Plant response rating, Chickweed: 90
[10]; 31 g ai/ha
  Plant response rating, Waterhemp: 35
[10]; 62 g ai/ha
  Plant response rating, Waterhemp: 60
[10]; 125 g ai/ha
  Plant response rating, Waterhemp: 55
[10]; 250 g ai/ha
  Plant response rating, Waterhemp: 70
[11]; 31 g ai/ha
  Plant response rating, Morningglory: 25
[11]; 62 g ai/ha
  Plant response rating, Morningglory: 40
[11]; 125 g ai/ha
  Plant response rating, Morningglory: 45
[11]; 250 g ai/ha
  Plant response rating, Morningglory: 45
[12]; 31 g ai/ha
  Plant response rating, Nutsedge, Yellow: 0
[12]; 62 g ai/ha
  Plant response rating, Nutsedge, Yellow: 0
[12]; 125 g ai/ha
  Plant response rating, Nutsedge, Yellow: 0
[12]; 250 g ai/ha
  Plant response rating, Nutsedge, Yellow: 0
[13]; 31 g ai/ha
  Plant response rating, Crabgrass, Large: 20
[13]; 62 g ai/ha
  Plant response rating, Crabgrass, Large: 60
[13]; 125 g ai/ha
  Plant response rating, Crabgrass, Large: 50
[13]; 250 g ai/ha
  Plant response rating, Crabgrass, Large: 70

## CN1C[C@H](c2cccc(C(F)(F)F)c2)[C@@H](C(=O)Nc2cccnc2F)C1=O [Compound 1397]
[14]; 250 g ai/ha
  Barnyardgrass damage rating (100=total damage to plant; 0=no damage to plant): 90
[14]; Echinochloa crus-galli, pre-emergence, 312 h, 15.625 g ai/ha, read-out: Barnyard grass damage rating (100=total damage to plant; 0=no damage to plant)
  pest or weed control at 15.625 g/ha: 90%
[14]; Echinochloa crus-galli, pre-emergence, 312 h, 62.5 g ai/ha, 100=total damage to plant, 0=no damage to plant, read-out: plant damage rating, Barnyardgrass
  pest or weed control at 62.5 g/ha: 90%
[15]; 15.625 g ai/ha
  Velvetleaf damage rating (100=total damage to plant; 0=no damage to plant): 0
[15]; 250 g ai/ha
  Velvetleaf damage rating (100=total damage to plant; 0=no damage to plant): 70
[15]; Abutilon theophrasti, pre-emergence, 312 h, 62.5 g ai/ha, 100=total damage to plant, 0=no damage to plant, read-out: plant damage rating, Velvetleaf
  pest or weed control at 62.5 g/ha: 10%
[16]; 250 g ai/ha
  Morningglory, Ivy-leaved damage rating (100=total damage to plant; 0=no damage to plant): 80
[16]; Ipomoea, pre-emergence, 312 h, 15.625 g ai/ha, read-out: Morning-glory, Ivy-leaved damage rating (100=total damage to plant; 0=no damage to plant)
  pest or weed control at 15.625 g/ha: 60%
[16]; Ipomoea, pre-emergence, 312 h, 62.5 g ai/ha, 100=total damage to plant, 0=no damage to plant, read-out: plant damage rating, Morningglory, Ivy-leaved
  pest or weed control at 62.5 g/ha: 70%
Corn (Zea mays); 15.625 g ai/ha
  Corn damage rating (100=total damage to plant; 0=no damage to plant): 80
Corn (Zea mays); 250 g ai/ha
  Corn damage rating (100=total damage to plant; 0=no damage to plant): 90
Corn (Zea mays); Zea mays, pre-emergence, 312 h, 62.5 g ai/ha, 100=total damage to plant, 0=no damage to plant, read-out: plant damage rating, Corn
  plant injury at 62.5 g/ha: 80%
[17]; 15.625 g ai/ha
  Pigweed, Redroot damage rating (100=total damage to plant; 0=no damage to plant): 0
[17]; 250 g ai/ha
  Pigweed, Redroot damage rating (100=total damage to plant; 0=no damage to plant): 80
[17]; Amaranthus retroflexus, pre-emergence, 312 h, 62.5 g ai/ha, 100=total damage to plant, 0=no damage to plant, read-out: plant damage rating, Pigweed, Redroot
  pest or weed control at 62.5 g/ha: 20%

## CN1C[C@H](c2ccc(C(F)(F)F)cc2)[C@@H](C(=O)Nc2cccc(F)n2)C1=O [Compound 1400]
[14]; 15.625 g ai/ha
  Barnyardgrass damage rating (100=total damage to plant; 0=no damage to plant): 30
[14]; [18]
  plant damage rating, Barnyardgrass: 80
[14]; 250 g ai/ha
  Barnyardgrass damage rating (100=total damage to plant; 0=no damage to plant): 80
[15]; 15.625 g ai/ha
  Velvetleaf damage rating (100=total damage to plant; 0=no damage to plant): 10
[15]; [18]
  plant damage rating, Velvetleaf: 10
[15]; 250 g ai/ha
  Velvetleaf damage rating (100=total damage to plant; 0=no damage to plant): 60
[16]; 15.625 g ai/ha
  Morning-glory, Ivy-leaved damage rating (100=total damage to plant; 0=no damage to plant): 0
[16]; [18]
  plant damage rating, Morningglory, Ivy-leaved: 0
Corn (Zea mays); 15.625 g ai/ha
  Corn damage rating (100=total damage to plant; 0=no damage to plant): 20
Corn (Zea mays); [18]
  plant damage rating, Corn: 40
Corn (Zea mays); 250 g ai/ha
  Corn damage rating (100=total damage to plant; 0=no damage to plant): 60
[17]; 15.625 g ai/ha
  Pigweed, Redroot damage rating (100=total damage to plant; 0=no damage to plant): 20
[17]; [18]
  plant damage rating, Pigweed, Redroot: 80
[17]; 250 g ai/ha
  Pigweed, Redroot damage rating (100=total damage to plant; 0=no damage to plant): 90
